Data as given in PubChem BioAssay (NCI).
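Here, GI50 denotes the concentration required for 50% inhibition of growth. TGI marks complete inhibition of growth.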

Tests used:
Assay in all cases: NCI-60 cell line screen, 384-well format
PC-3 prostate = tested on: PC-3 prostate
ACHN renal = tested on: ACHN renal
A498 renal = tested on: A498 renal
SK-MEL-5 melanoma = tested on: SK-MEL-5 melanoma
SF-268 CNS = tested on: SF-268 CNS
SF-539 CNS = tested on: SF-539 CNS
HOP-62 NSCLC = tested on: HOP-62 NSCLC
NCI-H322M lung = tested on: NCI-H322M lung
RPMI-8226 leukemia = tested on: RPMI-8226 leukemia
HCC-2998 colon = tested on: HCC-2998 colon
A549 NSCLC = tested on: A549 NSCLC
NCI-H226 lung = tested on: NCI-H226 lung
UACC-257 melanoma = tested on: UACC-257 melanoma
MDA-MB-435 melanoma = tested on: MDA-MB-435 melanoma
HT29 colon = tested on: HT29 colon
T-47D breast = tested on: T-47D breast
BT-549 breast = tested on: BT-549 breast
OVCAR-8 ovarian = tested on: OVCAR-8 ovarian
TK-10 renal = tested on: TK-10 renal
NCI-H522 lung = tested on: NCI-H522 lung
SF-295 CNS = tested on: SF-295 CNS
OVCAR-3 ovarian = tested on: OVCAR-3 ovarian
HOP-92 NSCLC = tested on: HOP-92 NSCLC
NCI/ADR-RES ovarian = tested on: NCI/ADR-RES ovarian
MALME-3M melanoma = tested on: MALME-3M melanoma
CCRF-CEM leukemia = tested on: CCRF-CEM leukemia
HL-60(TB) leukemia = tested on: HL-60(TB) leukemia
NCI-H23 lung = tested on: NCI-H23 lung
HCT-116 colon = tested on: HCT-116 colon

CCN(CC)CCCCNc1ncc2cc(-c3cc(OC)cc(OC)c3)c(NC(=O)NC(C)(C)C)nc2n1
GI50 (PC-3 prostate): 7.34 µM | TGI (PC-3 prostate): 19.6 µM | GI50 (ACHN renal): 4.17 µM | TGI (ACHN renal): 15.8 µM | GI50 (A498 renal): 2.48 µM | TGI (A498 renal): 15 µM | GI50 (SK-MEL-5 melanoma): 1.92 µM | TGI (SK-MEL-5 melanoma): 4.48 µM | GI50 (SF-268 CNS): 1.53 µM | TGI (SF-268 CNS): 4.77 µM | GI50 (SF-539 CNS): 2.22 µM | TGI (SF-539 CNS): 8.59 µM | GI50 (HOP-62 NSCLC): 6.07 µM | TGI (HOP-62 NSCLC): 18.2 µM | GI50 (NCI-H322M lung): 6.37 µM | TGI (NCI-H322M lung): 19.4 µM | GI50 (RPMI-8226 leukemia): 4.31 µM | TGI (RPMI-8226 leukemia): 14.3 µM | GI50 (HCC-2998 colon): 3.01 µM | TGI (HCC-2998 colon): 10.5 µM | GI50 (A549 NSCLC): 6.04 µM | TGI (A549 NSCLC): 18.5 µM | GI50 (NCI-H226 lung): 0.0358 µM | TGI (NCI-H226 lung): 17.6 µM | GI50 (UACC-257 melanoma): 1.98 µM | TGI (UACC-257 melanoma): 3.41 µM | GI50 (MDA-MB-435 melanoma): 10.9 µM | TGI (MDA-MB-435 melanoma): 23 µM | GI50 (HT29 colon): 1.6 µM | TGI (HT29 colon): 3.46 µM | GI50 (T-47D breast): 2.82 µM | TGI (T-47D breast): 8.19 µM | GI50 (BT-549 breast): 2.49 µM | TGI (BT-549 breast): 12.8 µM | GI50 (OVCAR-8 ovarian): 5.32 µM | TGI (OVCAR-8 ovarian): 17.5 µM | GI50 (TK-10 renal): 10.6 µM | TGI (TK-10 renal): 22.7 µM | GI50 (NCI-H522 lung): 10.1 µM | TGI (NCI-H522 lung): 21.7 µM | GI50 (SF-295 CNS): 12.7 µM | TGI (SF-295 CNS): 25.5 µM | GI50 (OVCAR-3 ovarian): 4.05 µM | TGI (OVCAR-3 ovarian): 14.5 µM | GI50 (HOP-92 NSCLC): 7.76 µM | TGI (HOP-92 NSCLC): 20.1 µM | GI50 (NCI/ADR-RES ovarian): 5.26 µM | TGI (NCI/ADR-RES ovarian): 17.2 µM | GI50 (MALME-3M melanoma): 1.88 µM | TGI (MALME-3M melanoma): 3.35 µM | GI50 (CCRF-CEM leukemia): 2.16 µM | TGI (CCRF-CEM leukemia): 4.68 µM | GI50 (HL-60(TB) leukemia): 1.78 µM | TGI (HL-60(TB) leukemia): 3.19 µM | GI50 (NCI-H23 lung): 10.9 µM | TGI (NCI-H23 lung): 22.9 µM | GI50 (HCT-116 colon): 2.86 µM | TGI (HCT-116 colon): 8.34 µM
